Measurements as given in ChEMBL document CHEMBL3779887, “Robenidine Analogues as Gram-Positive Antibacterial Agents” (J Med Chem, 2016).
Values after ≈ are worked out from the molar mass of the structure shown. Active and inactive are the calls of the source. No cut-off for these calls is given here.

Tests used:
Type in all cases: functional
Escherichia coli = assay: Antibacterial activity against Escherichia coli ATCC 25922 after 20 to 24 hrs
Staphylococcus aureus = assay: Antibacterial activity against methicillin-resistant Staphylococcus aureus after 20 to 24 hrs
Enterococcus = assay: Antibacterial activity against vancomycin-resistant Enterococcus after 20 to 24 hrs
Pseudomonas aeruginosa = assay: Antibacterial activity against Pseudomonas aeruginosa ATCC 27853 after 20 to 24 hrs

Row | Structure (SMILES) | MIC (Escherichia coli) [µM] | MIC (Staphylococcus aureus) [µM] | MIC (Enterococcus) [µM] | MIC (Pseudomonas aeruginosa) [µM] | Activity (Staphylococcus aureus) | Activity (Enterococcus) | Activity (Escherichia coli)
1 | N=C(N/N=C/c1cccc(O)c1)N/N=C/c1cccc(O)c1 | > 400 | 192 (≈ 57.1 µg/mL) | 288 (≈ 85.6 µg/mL) | > 400 |  |  | 
2 | N=C(N/N=C/c1ccc2ccccc2c1)N/N=C/c1ccc2ccccc2c1 |  | 239 (≈ 87.3 µg/mL) | 159 (≈ 58.1 µg/mL) |  |  |  | 
3 | N=C(N/N=C/c1ccc(O)cc1)N/N=C/c1ccc(O)cc1 | > 400 | 192 (≈ 57.1 µg/mL) | 288 (≈ 85.6 µg/mL) | > 400 |  |  | 
4 | N=C(N/N=C/c1ccc(O)c(O)c1)N/N=C/c1ccc(O)c(O)c1 | > 400 | > 400 | > 400 | > 400 |  |  | 
5 | CCCCc1ccc(/C=N/NC(=N)N/N=C/c2ccc(CCCC)cc2)cc1 | > 400 | 232 (≈ 87.6 µg/mL) | 193 (≈ 72.9 µg/mL) | > 400 |  |  | 
6 | N=C(N/N=C/C=C/c1ccccc1)N/N=C/C=C/c1ccccc1 |  | > 400 | > 400 |  |  |  | 
7 | N=C(N/N=C/c1ccc(F)cc1)N/N=C/c1ccc(F)cc1 | > 400 | 47 (≈ 14.2 µg/mL) | 23.7 (≈ 7.14 µg/mL) | > 400 |  |  | 
8 | N=C(N/N=C/c1cc(Cl)cc(Cl)c1)N/N=C/c1cc(Cl)cc(Cl)c1 | > 400 | > 400 | > 400 | > 400 |  |  | 
9 | N=C(N/N=C/c1cnc2ccccc2n1)N/N=C/c1cnc2ccccc2n1 |  |  |  |  | inactive | inactive | 
10 | C/C(=N\NC(=N)N/N=C(\C)c1ccc(N2CCNCC2)cc1)c1ccc(N2CCNCC2)cc1 |  | 243 (≈ 112 µg/mL) | 278 (≈ 128 µg/mL) |  |  |  | inactive
11 | COc1ccc(/C=N/NC(=N)N/N=C/c2ccc(OC)cc2)cc1 | > 400 | > 400 | > 400 | > 400 |  |  | 
12 | Cc1ccc(/C=N/NC(=N)N/N=C/c2ccc(C)cc2)cc1 | > 400 | 9.1 (≈ 2.67 µg/mL) | 12.1 (≈ 3.55 µg/mL) | > 400 |  |  | 
13 | N=C(N/N=C/c1cc(O)c(O)cc1O)N/N=C/c1cc(O)c(O)cc1O | > 400 | 161 (≈ 58.2 µg/mL) | 322 (≈ 116 µg/mL) | > 400 |  |  | 
14 | CC(=O)Nc1cc(Cl)ccc1/C=N/NC(=N)N/N=C/c1ccc(Cl)cc1NC(C)=O | > 400 | > 400 | > 400 | > 400 |  |  | 
15 | N=C(N/N=C(\CN)c1ccccc1)N/N=C(\CN)c1ccccc1 |  | > 400 | > 400 |  |  |  | inactive
16 | N=C(N/N=C/c1cc(O)c(O)c(O)c1)N/N=C/c1cc(O)c(O)c(O)c1 | > 400 | 161 (≈ 58.2 µg/mL) | > 400 | 322 (≈ 116 µg/mL) |  |  | 
17 | Cc1cccc(/C=N/NC(=N)N/N=C/c2cccc(C)c2)c1 | > 400 | 24.4 (≈ 7.16 µg/mL) | 24.4 (≈ 7.16 µg/mL) | > 400 |  |  | 
18 | CCCc1ccc(/C=N/NC(=N)N/N=C/c2ccc(CCC)cc2)cc1 | > 400 | 83 (≈ 29 µg/mL) | 73 (≈ 25.5 µg/mL) | > 400 |  |  | 
19 | N=C(N/N=C(\C(=O)O)c1ccccc1)N/N=C(\C(=O)O)c1ccccc1 |  | > 400 | > 400 |  |  |  | inactive
20 | N=C(N/N=C/c1ccc(O)cc1O)N/N=C/c1ccc(O)cc1O | > 400 | > 400 | > 400 | > 400 |  |  | 
21 | N=C(N/N=C/c1ccc(Br)cc1)N/N=C/c1ccc(Br)cc1 | > 400 | > 400 | > 400 | > 400 |  |  | 
22 | N=C(N/N=C/c1ccncc1)N/N=C/c1ccncc1 |  | > 400 | > 400 |  |  |  | 

Row | Structure (SMILES) | MIC (Escherichia coli) [µM] | MIC (Staphylococcus aureus) [µM] | MIC (Enterococcus) [µM] | MIC (Pseudomonas aeruginosa) [µM] | Activity (Staphylococcus aureus) | Activity (Enterococcus) | Activity (Escherichia coli)
23 | N=C(N/N=C/c1ccc2[nH]ccc2c1)N/N=C/c1ccc2[nH]ccc2c1 |  | 31.6 (≈ 10.9 µg/mL) | 42 (≈ 14.4 µg/mL) |  |  |  | 
24 | COc1ccc(/C=C/C=N/NC(=N)N/N=C/C=C/c2ccc(OC)cc2)cc1 |  | 309 (≈ 117 µg/mL) | > 400 |  |  |  | 
25 | N=C(N/N=C/c1ccc(Cl)cc1N)N/N=C/c1ccc(Cl)cc1N | > 400 | 5 (≈ 1.82 µg/mL) | 6.3 (≈ 2.29 µg/mL) | > 400 |  |  | 
26 | C/C(=N\NC(=N)N/N=C(\C)c1ccc(C)cc1)c1ccc(C)cc1 |  | 11.2 (≈ 3.6 µg/mL) | 8.4 (≈ 2.7 µg/mL) |  |  |  | inactive
27 | N=C(N/N=C/c1ccccc1)N/N=C/c1ccccc1 | > 400 | > 400 | > 400 | > 400 |  |  | 
28 | N=C(N/N=C/c1cc(F)ccc1F)N/N=C/c1cc(F)ccc1F | > 400 | > 400 | > 400 | > 400 |  |  | 
29 | COc1cc(Br)c(/C=N/NC(=N)N/N=C/c2cc(OC)c(OC)cc2Br)cc1OC | > 400 | > 400 | > 400 | > 400 |  |  | 
30 | Cc1ccccc1/C=N/NC(=N)N/N=C/c1ccccc1C | > 400 | 121 (≈ 35.5 µg/mL) | 61 (≈ 17.9 µg/mL) | > 400 |  |  | 
31 | N=C(N/N=C/c1ccc(Cl)cc1F)N/N=C/c1ccc(Cl)cc1F | > 400 | 6.1 (≈ 2.26 µg/mL) | 7.4 (≈ 2.74 µg/mL) | > 400 |  |  | 
32 | N=C(N/N=C/c1c(F)c(F)c(F)c(F)c1F)N/N=C/c1c(F)c(F)c(F)c(F)c1F | > 400 | > 400 | > 400 | > 400 |  |  | 
33 | COc1cc(/C=N/NC(=N)N/N=C/c2cc(Br)c(OC)c(OC)c2)cc(Br)c1OC | > 400 | > 400 | > 400 | > 400 |  |  | 
34 | N=C(N/N=C/C(=C/c1ccccc1)c1ccccc1)N/N=C/C(=C/c1ccccc1)c1ccccc1 |  | 61 (≈ 28.6 µg/mL) | > 400 |  |  |  | 
35 | C/C(=N\NC(=N)N/N=C(\C)c1ccccc1)c1ccccc1 |  | 18.2 (≈ 5.34 µg/mL) | 49 (≈ 14.4 µg/mL) |  |  |  | inactive
36 | CCC/C(=N\NC(=N)N/N=C(\CCC)c1ccc(Cl)cc1)c1ccc(Cl)cc1 |  | > 400 | > 400 |  |  |  | inactive
37 | N=C(N/N=C/c1ccccc1-c1ccccc1)N/N=C/c1ccccc1-c1ccccc1 | > 400 | > 400 | > 400 | > 400 |  |  | 
38 | CN(C)c1ccc(/C=N/NC(=N)N/N=C/c2ccc(N(C)C)cc2O)c(O)c1 | > 400 | 229 (≈ 87.8 µg/mL) | 76 (≈ 29.1 µg/mL) | > 400 |  |  | 
39 | COc1ccccc1/C=N/NC(=N)N/N=C/c1ccccc1OC | > 400 | > 400 | 358 (≈ 116 µg/mL) | > 400 |  |  | 
40 | N=C(N/N=C/c1ccccc1Br)N/N=C/c1ccccc1Br | > 400 | > 400 | > 400 | > 400 |  |  | 
41 | N=C(N/N=C/c1c(Cl)cccc1Cl)N/N=C/c1c(Cl)cccc1Cl | > 400 | > 400 | > 400 | > 400 |  |  | 
42 | N=C(N/N=C/c1ccc(OC(F)(F)F)cc1)N/N=C/c1ccc(OC(F)(F)F)cc1 | > 400 | 187 (≈ 81 µg/mL) | 85 (≈ 36.8 µg/mL) | > 400 |  |  | 
43 | CC/C(=N\NC(=N)N/N=C(\CC)c1ccc(Cl)cc1)c1ccc(Cl)cc1 |  | 56 (≈ 21.9 µg/mL) | 18.7 (≈ 7.3 µg/mL) |  |  |  | inactive
44 | N=C(N/N=C/c1ccccc1Cl)N/N=C/c1ccccc1Cl | > 400 | > 400 | > 400 | > 400 |  |  | 

Row | Structure (SMILES) | MIC (Escherichia coli) [µM] | MIC (Staphylococcus aureus) [µM] | MIC (Enterococcus) [µM] | MIC (Pseudomonas aeruginosa) [µM] | Activity (Staphylococcus aureus) | Activity (Enterococcus) | Activity (Escherichia coli)
45 | N=C(N/N=C/c1cccc(C(=O)O)c1)N/N=C/c1cccc(C(=O)O)c1 | > 400 | > 400 | > 400 | > 400 |  |  | 
46 | N=C(N/N=C/c1cccc(F)c1)N/N=C/c1cccc(F)c1 | > 400 | 47 (≈ 14.2 µg/mL) | 71 (≈ 21.4 µg/mL) | > 400 |  |  | 
47 | N=C(N/N=C/c1cccnc1N)N/N=C/c1cccnc1N |  | > 400 | > 400 |  |  |  | 
48 | C/C(=N\NC(=N)N/N=C(\C)c1ccc(C(C)(C)C)cc1)c1ccc(C(C)(C)C)cc1 |  | 4.5 (≈ 1.83 µg/mL) | 36.2 (≈ 14.7 µg/mL) |  |  |  | inactive
49 | N=C(N/N=C/c1cccc(Cl)c1)N/N=C/c1cccc(Cl)c1 | > 400 | 8.1 (≈ 2.71 µg/mL) | 10.8 (≈ 3.61 µg/mL) | > 400 |  |  | 
50 | CC(O)Nc1cc(Cl)ccc1/C=N/NC(=N)N/N=C/c1ccc(Cl)cc1NC(C)O (stereo not given) | > 400 | 66 (≈ 29.9 µg/mL) | 98 (≈ 44.3 µg/mL) | > 400 |  |  | 
51 | N=C(N/N=C/c1ccc(O)c(O)c1O)N/N=C/c1ccc(O)c(O)c1O | > 400 | 161 (≈ 58.2 µg/mL) | 161 (≈ 58.2 µg/mL) | > 400 |  |  | 
52 | C#Cc1ccc(/C=N/NC(=N)N/N=C/c2ccc(C#C)cc2)cc1 | > 400 | > 400 | 17.2 (≈ 5.39 µg/mL) | > 400 |  |  | 
53 | N=C(N/N=C/c1ccc(SC(F)(F)F)cc1)N/N=C/c1ccc(SC(F)(F)F)cc1 | > 400 | 96 (≈ 44.7 µg/mL) | 135 (≈ 62.8 µg/mL) | > 400 |  |  | 
54 | COc1cccc(/C=N/NC(=N)N/N=C/c2cccc(OC)c2)c1 | > 400 | 88 (≈ 28.6 µg/mL) | 88 (≈ 28.6 µg/mL) | > 400 |  |  | 
55 | N=C(N/N=C/c1cccc(O)c1O)N/N=C/c1cccc(O)c1O | > 400 | 88 (≈ 29 µg/mL) | 262 (≈ 86.3 µg/mL) | > 400 |  |  | 
56 | N=C(N/N=C/c1ccc(/C=C/C(=O)O)cc1)N/N=C/c1ccc(/C=C/C(=O)O)cc1 | > 400 | > 400 | > 400 | > 400 |  |  | 
57 | N=C(N/N=C/c1cnccc1Cl)N/N=C/c1cnccc1Cl |  | 172 (≈ 57.8 µg/mL) | 86 (≈ 28.9 µg/mL) |  |  |  | 
58 | N=C(N/N=C/c1ccc(-c2ccccc2)cc1)N/N=C/c1ccc(-c2ccccc2)cc1 | > 400 | 282 (≈ 118 µg/mL) | 106 (≈ 44.3 µg/mL) | > 400 |  |  | 
59 | Cc1cccc(/C=N/NC(=N)N/N=C/c2cccc(C)c2O)c1O | > 400 | > 400 | > 400 | > 400 |  |  | 
60 | C/C(=N\NC(=N)N/N=C(\C)c1ccc(C(F)(F)F)cc1)c1ccc(C(F)(F)F)cc1 |  | > 400 | 17.2 (≈ 7.39 µg/mL) |  |  |  | inactive
61 | N=C(N/N=C/c1csc2ccc(Cl)cc12)N/N=C/c1csc2ccc(Cl)cc12 |  | > 400 | 33.1 (≈ 14.8 µg/mL) |  |  |  | 
62 | N=C(N/N=C/c1cnc2ccccc2c1)N/N=C/c1cnc2ccccc2c1 |  |  |  |  | inactive | inactive | 
63 | C/C(=N\NC(=N)N/N=C(\C)c1ccc(Br)cc1)c1ccc(Br)cc1 |  | 16.4 (≈ 7.4 µg/mL) | 24.6 (≈ 11.1 µg/mL) |  |  |  | inactive
64 | CCCC/C(=N\NC(=N)N/N=C(\CCCC)c1ccc(Cl)cc1)c1ccc(Cl)cc1 |  | > 400 | > 400 |  |  |  | inactive
65 | N=C(N/N=C/C1CCCCC1)N/N=C/C1CCCCC1 |  | 408 (≈ 113 µg/mL) | 306 (≈ 84.9 µg/mL) |  |  |  | 
